Results: the supplement of paper PMC4862054

Tests used:
Assay in all cases: normalised viability (% of control), CellTiter-Blue; higher = more viable cells (about 100 = DMSO control)
Settings in all cases: incubation time: 72 h
[1] = test system: CAL-148
Procedure: (§1)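 DSRT, CellTiter-Blue viability, 72 h incubation. Signal is normalised to DMSO and benzethonium chloride controls. Value is the normalised response at dose 9.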

[2] = test system: CAL-51
Procedure: as §1

[3] = test system: CAL-85-1
Procedure: as §1

[4] = test system: DU-4475
Procedure: as §1

[5] = test system: HDQ-P1
Procedure: as §1

[6] = test system: MDA-MB-453
Procedure: as §1

[7] = test system: CAL-148; remark: listed apart in the source
Procedure: (§2)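 DSRT, CellTiter-Blue viability, 72 h incubation. Signal is normalised to DMSO and benzethonium chloride controls. Value is the normalised response at dose 8.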

[8] = test system: CAL-51; remark: listed apart in the source
Procedure: as §2

[9] = test system: CAL-85-1; remark: listed apart in the source
Procedure: as §2

[10] = test system: DU-4475; remark: listed apart in the source
Procedure: as §2

[11] = test system: HDQ-P1; remark: listed apart in the source
Procedure: as §2

[12] = test system: MDA-MB-453; remark: listed apart in the source
Procedure: as §2

Row | Compound | normalised viability [1] | normalised viability [2] | normalised viability [3] | normalised viability [4] | normalised viability [5] | normalised viability [6] | normalised viability [7] | normalised viability [8] | normalised viability [9] | normalised viability [10] | normalised viability [11] | normalised viability [12]
1 | C[C@]1(O)C[C@@H](c2nc(-c3ccc4ccc(-c5ccccc5)nc4c3)c3c(N)nccn32)C1 [OSI-906] (10000 nM) | 118% | 81% | 67.4% | 92.6% | 32.4% | 65.9% |  |  |  |  |  | 
2 | COc1cc(F)c(F)c(Nc2ccc(I)cc2F)c1NS(=O)(=O)C1(C[C@H](O)CO)CC1 [RDEA119] (10000 nM) | 71.5% | 60.4% | 29.9% | 0.93% | 51.1% | 36.1% |  |  |  |  |  | 
3 | CC(=O)c1c(C)c2cnc(Nc3ccc(N4CCNCC4)cn3)nc2n(C2CCCC2)c1=O (10000 nM) | 87.6% | 50.8% | 78.2% | 85.9% | 93.5% | 61.1% |  |  |  |  |  | 
4 | C[C@]12CC[C@@H]3c4ccc(OC(=O)N(CCCl)CCCl)cc4CC[C@H]3[C@@H]1CC[C@@H]2O [Estramustine] (990 nM) | 111% | 84% | 110% | 89.9% | 99.5% | 101% |  |  |  |  |  | 
5 | O=C1CN2Cc3c(ccc(Cl)c3Cl)N=C2N1 [Anagrelide] (3000 nM) |  |  |  |  |  |  | 94.8% | 78.4% | 84.8% | 97.8% | 85.4% | 112%
6 | Oc1ncnc2[nH]ncc12 [Allopurinol] (3000 nM) |  |  |  |  |  |  | 108% | 104% | 103% | 113% | 94.6% | 108%
7 | CC1(C)CNc2cc(NC(=O)c3cccnc3NCc3ccncc3)ccc21 [Motesanib] (3000 nM) |  |  |  |  |  |  | 86.7% | 104% | 86.3% | 101% | 72.7% | 80.8%
8 | O=P(O)(O)C(O)(Cn1ccnc1)P(=O)(O)O [Zoledronic acid] (10000 nM) | 96.1% | 103% | 90.4% | 98% | 106% | 82.3% |  |  |  |  |  | 
